Experimental data published in patent publication US20160122340A1, “HISTONE DEACETYLASE INHIBITORS BASED ON DERIVATIVES OF TRICYCLIC POLYHYDROACRIDINE AND ANALOGS POSSESSING FUSED SATURATED FIVE-AND-SEVEN-MEMBERED RINGS” (QUIMATRYX, S.L., priority 2013, published 2016).

Tests used:
[1] = target: T1, Human HDAC6 (Homo sapiens, UniProt Q9UBN7); assay: In vitro HDAC6 inhibition, fluorogenic peptide substrate; format: biochemical; conditions: read-out: IC50 (μM) HDAC-6
T1 construct: Full length with N-terminal GST tag, MW=159 kDa; GST (N); purchased BioMol SE-508; host or cells: baculovirus / Sf9 cells
T1 sequence (Q9UBN7 1-1215): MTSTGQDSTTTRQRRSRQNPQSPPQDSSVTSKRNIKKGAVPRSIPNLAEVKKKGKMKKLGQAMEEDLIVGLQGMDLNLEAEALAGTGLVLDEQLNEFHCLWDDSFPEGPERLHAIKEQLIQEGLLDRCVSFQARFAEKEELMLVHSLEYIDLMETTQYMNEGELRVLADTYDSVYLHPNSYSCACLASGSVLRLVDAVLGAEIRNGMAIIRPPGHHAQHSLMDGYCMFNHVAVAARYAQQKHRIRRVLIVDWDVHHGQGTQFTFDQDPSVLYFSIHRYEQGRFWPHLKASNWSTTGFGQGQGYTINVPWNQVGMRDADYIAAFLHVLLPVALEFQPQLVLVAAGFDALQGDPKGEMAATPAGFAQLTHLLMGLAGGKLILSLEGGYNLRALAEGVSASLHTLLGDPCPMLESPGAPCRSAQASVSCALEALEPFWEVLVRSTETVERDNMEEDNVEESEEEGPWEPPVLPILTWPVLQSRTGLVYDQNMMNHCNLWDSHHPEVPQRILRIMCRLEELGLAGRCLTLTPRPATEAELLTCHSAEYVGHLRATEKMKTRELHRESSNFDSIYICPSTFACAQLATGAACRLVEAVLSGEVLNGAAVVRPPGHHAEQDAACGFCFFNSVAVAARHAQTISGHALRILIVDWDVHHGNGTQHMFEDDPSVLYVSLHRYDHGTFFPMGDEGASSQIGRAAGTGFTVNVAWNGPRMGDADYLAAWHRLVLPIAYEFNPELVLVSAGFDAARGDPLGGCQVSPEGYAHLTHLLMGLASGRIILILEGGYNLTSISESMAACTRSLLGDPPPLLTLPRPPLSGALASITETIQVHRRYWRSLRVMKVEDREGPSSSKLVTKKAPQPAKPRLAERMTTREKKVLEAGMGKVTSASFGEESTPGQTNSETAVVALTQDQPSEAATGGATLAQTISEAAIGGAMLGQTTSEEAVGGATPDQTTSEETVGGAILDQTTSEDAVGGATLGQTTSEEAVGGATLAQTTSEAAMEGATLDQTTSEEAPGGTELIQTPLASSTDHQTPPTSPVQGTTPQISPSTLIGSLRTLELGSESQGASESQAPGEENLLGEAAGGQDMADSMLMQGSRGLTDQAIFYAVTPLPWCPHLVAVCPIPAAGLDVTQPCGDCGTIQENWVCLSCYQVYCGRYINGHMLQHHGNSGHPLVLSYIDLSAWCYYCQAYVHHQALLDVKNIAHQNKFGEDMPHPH
Method: (§1) In Vitro Inhibitory Activity of Histone Deacetylase: Human Isoforms HDAC1, 2, 3, 4, 5, 6, 7, 8, 9, 10 and 11 and HeLa Cell Line Nuclear Extract (IC50 Data)
(§2) All HDAC assays were performed using acetylated AMC-labeled peptide substrate: • Substrate for isoforms HDAC1, 2, 3, 6, 10, 11 and HeLa nuclear extract assays: Acetylated fluorogenic peptide from p53 residues 379-382 (RHKKAc). • Substrate for isoforms HDAC 4, 5, 7, 9: Fluorogenic Boc-L-Lys(ε-trifluoroacetyl)-AMC. • Substrate for HDAC8 assays: Acetylated fluorogenic peptide from p53 residues 379-382 (RHKAcKAc).
(§3) 50 μM of substrate peptide (see ‘substrate peptides’ section above) and an optimal concentration of the corresponding enzyme (see ‘enzymes’ section above) in the assay buffer and 1% final concentration of DMSO were incubated in the presence of gradient concentrations of inhibitors (10-dose IC50 mode with 3-fold serial dilution) at 30° C. for 2 h. The reactions were carried out in a 96-well microplate for fluorometry in a 50 μl reaction volume. After the deacetylation reaction, Fluor-de-Lys-Developer (BioMol Cat. # KI-105) was added to each well to digest the deacetylated substrate, thus producing the fluorescent signal. The reaction was allowed to develop for 45 minutes at 30° C. with 5% CO2; then the fluorescent signal was measured with an excitation wavelength at 360 nm and an emission wavelength at 460 nm in a microplate-reading fluorometer (GeminiXS; Molecular Devices, Sunnyvale, Calif.). A curve of Deacetylated Standard (Biomol, Cat. # KI-142; made from 100 μM with 1:2 dilution and 10-doses, 6 μl) allowed the conversion of fluorescent signal into micromoles of deacetylated product. All experiments were performed in triplicate. IC50 was calculated by fitting the experimental data to a dose-response curve. DMSO was used as negative control; Trichostatin A (Biomol Cat. # GR-309) was used as positive control inhibitor.

[2] = target: T2, Human HDAC11 (Homo sapiens, UniProt Q96DB2); assay: In vitro HDAC11 inhibition, fluorogenic peptide substrate; format: biochemical; conditions: read-out: IC50 (μM) HDAC-11
T2 construct: GST (N); purchased BioMol SE-560; host or cells: baculovirus expression system
T2 sequence (Q96DB2 1-347): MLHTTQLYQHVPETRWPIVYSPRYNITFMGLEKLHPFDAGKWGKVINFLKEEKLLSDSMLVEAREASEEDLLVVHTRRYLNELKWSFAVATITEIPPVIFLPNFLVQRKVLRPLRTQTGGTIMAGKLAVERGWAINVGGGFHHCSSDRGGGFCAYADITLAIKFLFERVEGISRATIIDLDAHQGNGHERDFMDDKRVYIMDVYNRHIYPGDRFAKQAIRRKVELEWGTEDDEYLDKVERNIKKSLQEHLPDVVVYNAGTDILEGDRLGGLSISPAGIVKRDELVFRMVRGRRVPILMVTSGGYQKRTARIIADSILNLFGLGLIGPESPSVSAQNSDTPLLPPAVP
Method: as §1, §2, §3

[3] = tested on: T3, Nuclear Extract from HeLa Cells; assay: HeLa nuclear extract HDAC activity inhibition; format: biochemical, human
T3 construct: 25 ng/μl Nuclear Extract from HeLa Cells: Prepared by high salt extraction of HeLa nuclei (human cervical cancer cell line)
Method: as §1, §2
as §3, with “50 μM of substrate peptide (see ‘substrate peptides’ section above) and an optimal concentration of the corresponding enzyme (see ‘enzymes’ section above) in the assay buffer and 1% final concentration of DMSO were incubated in the presence of gradient concentrations of inhibitors (10-dose IC50 mode with 3-fold serial dilution) at 30° C. for 2 h.” left out

IC50 [1] [µM]	IC50 [2] [µM]	IC50 [3] [µM]	Structure (SMILES)
0.19	4.1	0.42	O=C(CCCCCCNC(=O)c1c2c(nc3ccccc13)CCCC2)NO [Example 11, N-[7-(hydroxyamino)-7-oxoheptyl]-1,2,3,4-tetrahydroacridine-9-carboxamide]
0.33	> 5	0.85	O=C(CCCCCNC(=O)c1c2c(nc3ccccc13)CCCC2)NO [Example 10, N-[6-(hydroxyamino)-6-oxohexyl]-1,2,3,4-tetrahydroacridine-9-carboxamide]
0.015	1.22	0.038	O=C(CCCCCCNc1c2c(nc3ccccc13)CCCCC2)NO [Example 4, N-hydroxy-7-[(7,8,9,10-tetrahydro-6H-cyclohepta[b]quinolin-11-yl)amino]heptanamide]
–	0.44	0.019	O=C(CCCCCCNc1c2c(nc3ccccc13)CCC2)NO [Example 3, 7-[(2,3-dihydro-1H-cyclopenta[b]quinolin-9-yl)amino]-N-hydroxyheptanamide]
0.036	2.21	0.066	O=C(CCCCCNc1c2c(nc3ccccc13)CCCC2)NO [Example 1, N-hydroxy-6-[(1,2,3,4-tetrahydroacridin-9-yl)amino]hexanamide]
0.01	0.59	0.023	O=C(CCCCCCNc1c2c(nc3ccccc13)CCCC2)NO [Example 2, N-hydroxy-7-[(1,2,3,4-tetrahydroacridin-9-yl)amino]heptanamide]
0.015	1.04	0.033	COc1cccc2c(NCCCCCCC(=O)NO)c3c(nc12)CCCC3 [Example 5, N-hydroxy-7-[(5-methoxy-1,2,3,4-tetrahydroacridin-9-yl)amino]heptanamide]
0.033	0.6	0.095	O=C(CCCCCCNc1c2c(nc3cnccc13)CCCC2)NO [Example 8, N-hydroxy-7-[(6,7,8,9-tetrahydrobenzo[b][1,7]naphthyridin-5-yl)amino]heptanamide]
0.038	0.69	0.12	O=C(CCCCCCNc1c2c(nc3ncccc13)CCCC2)NO [Example 7, N-hydroxy-7-[(6,7,8,9-tetrahydrobenzo[b][1,8]naphthyridin-5-yl)amino]heptanamide]
